The IC50 is the point on the concentration scale where inhibition reaches its midpoint.

The structures appear in SMILES notation. Calls of active or inactive are those of the source. The calls are words filed in the database; no cut-off is given here.

For data set [1], the system named is PC-3. Put plainly: Growth inhibition of human PC3 cells at 300 uM after 48 hrs by alamar blue assay. It is filed as functional. A general note: Alamar Blue is a resazurin reagent that responds to reducing activity.
Data set [2] has as its system WI-38. Put plainly: Cytotoxicity against human WI38 cells at 2 x 10^-3 to 3 x 10^-4 M after 48 hrs by alamar blue assay. It is filed as cell-based. The settings on record: wi-38, 48 h.
Data set [3] has as its system SK-BR-3. Put plainly: Growth inhibition of human SKBR3 cells at 300 uM after 48 hrs by alamar blue assay. It is filed as functional.
Data set [4] relates to SK-BR-3. Put plainly: Growth inhibition of human SKBR3 cells at 2 x 10 '-3 M to 1.5 x 10^-4 M after 24 hrs by alamar blue assay. It is filed as functional.
Data set [5] deals with PC-3. Briefly: Growth inhibition of human PC3 cells at 2 x 10 '-3 M to 1.5 x 10^-4 M after 24 hrs by alamar blue assay. The data set is classed as functional.
Data set [6] has as its system WI-38. Briefly: Cytotoxicity against human WI38 cells at 2 x 10^-3 to 3 x 10^-4 M after 24 hrs by alamar blue assay. The data set is classed as cell-based. The settings on record: wi-38, 24 h.
The nature of data set [7]: Drug metabolism in human serum assessed as compound hydrolysis after 3 hrs by HPLC analysis. The data set is classed as ADME, cell-free. To be noted: read-out: Drug metabolism.
In data set [8] the test system is PC-3. Briefly: Cytotoxicity against human PC3 cells after 48 hrs by alamar blue assay. The data set is classed as functional, cell-based. The settings on record: PC-3, 48 h.
The nature of data set [9]: Aqueous solubility of the compound in 43 ml water. It is filed as physicochemical. The settings on record: buffer.
The subject of data set [10] is PANC-1. Briefly: Growth inhibition of human PANC1 cells at 2 x 10 '-3 M to 1.5 x 10^-4 M after 24 hrs by alamar blue assay. It is filed as functional.
Data set [11] deals with SK-BR-3. Put plainly: Growth inhibition of human SKBR3 cells at 2 x 10^-3 to 1.5 x 10^-4 M after 48 hrs by alamar blue assay. It is filed as functional, cell-based.
For data set [12], the system named is PANC-1. Put plainly: Growth inhibition of human PANC1 cells at 2 x 10^-3 to 1.5 x 10^-4 M after 48 hrs by alamar blue assay. The data set is classed as functional, cell-based.
Data set [13] concerns PANC-1. Briefly: Growth inhibition of human PANC1 cells at 300 uM after 48 hrs by alamar blue assay. It is filed as functional.
The subject of data set [14] is PC-3. Briefly: Cytotoxicity against human PC3 cells after 24 hrs by alamar blue assay. The settings on record: PC-3, 24 h. It is filed as functional, cell-based.
The test system of data set [15] is PC-3. Briefly: Growth inhibition of human PC3 cells at 2 x 10^-3 to 1.5 x 10^-4 M after 48 hrs by alamar blue assay. The data set is classed as functional, cell-based.
In data set [16] the test system is SK-BR-3. Briefly: Cytotoxicity against human SKBR3 cells after 24 hrs by alamar blue assay. The data set is classed as functional, cell-based. The settings on record: SK-BR-3, 24 h.
Data set [17] relates to PANC-1. Briefly: Cytotoxicity against human PANC1 cells after 24 hrs by alamar blue assay. The data set is classed as functional, cell-based. The settings on record: PANC-1, 24 h.
Data set [18] concerns WI-38. Briefly: Cytotoxicity against human WI38 cells after 48 hrs by alamar blue assay. The data set is classed as cell-based. To be noted: WI-38, 48 h.
Data set [19] relates to WI-38. Briefly: Growth stimulation of human WI38 cells at 2 x 10^-3 to 3 x 10^-4 M after 24 to 48 hrs by alamar blue assay. The data set is classed as functional, cell-based.
For data set [20], the system named is PC-3. Put plainly: Growth stimulation of human PC3 cells at 2 x 10^-3 M after 24 to 48 hrs by alamar blue assay. It is filed as functional, cell-based.
Data set [21] deals with PC-3. Briefly: Ratio of IC50 for aspirin to compound IC50 for human PC3 cells. The data set is classed as functional.
Data set [22] relates to SK-BR-3. Briefly: Ratio of IC50 for aspirin to compound IC50 for human SKBR3 cells. The data set is classed as functional.
Data set [23] relates to SK-BR-3. Briefly: Growth inhibition of human SKBR3 cells at 300 uM after 24 hrs by alamar blue assay. The data set is classed as functional. To be noted: SK-BR-3, 24 h, read-out: GI.
The test system of data set [24] is SK-BR-3. Put plainly: Growth inhibition of human SKBR3 cells at 150 uM after 48 hrs by alamar blue assay. It is filed as functional. To be noted: SK-BR-3, 48 h, read-out: GI.
In data set [25] the test system is PANC-1. Briefly: Growth inhibition of human PANC1 cells at 150 uM after 48 hrs by alamar blue assay. The settings on record: PANC-1, 48 h, read-out: GI. The data set is classed as functional.
The test system of data set [26] is PC-3. Put plainly: Growth inhibition of human PC3 cells at 150 uM after 48 hrs by alamar blue assay. It is filed as functional. To be noted: PC-3, 48 h, read-out: GI.
Data set [27] relates to SK-BR-3. Briefly: Cytotoxicity against human SKBR3 cells after 48 hrs by alamar blue assay. It is filed as functional, cell-based. The settings on record: SK-BR-3, 48 h.
Data set [28] is described as follows: Aqueous solubility of the compound in 300 ml water. The settings on record: buffer. The data set is classed as physicochemical.
Data set [29] relates to PC-3. Briefly: Growth inhibition of human PC3 cells at 300 uM after 24 hrs by alamar blue assay. The data set is classed as functional. To be noted: PC-3, 24 h, read-out: GI.
Data set [30] relates to WI-38. Put plainly: Cytotoxicity against human WI38 cells after 24 hrs by alamar blue assay. It is filed as cell-based. The settings on record: WI-38, 24 h.
In data set [31] the test system is WI-38. Briefly: Cytotoxicity against human WI38 cells at 300 uM after 24 hrs by alamar blue assay. It is filed as cell-based. To be noted: wi-38, 24 h.
Data set [32] has as its system PANC-1. Put plainly: Ratio of IC50 for aspirin to compound IC50 for human PANC1 cells. It is filed as functional.
Data set [33] concerns PANC-1. Put plainly: Cytotoxicity against human PANC1 cells after 48 hrs by alamar blue assay. It is filed as functional, cell-based. The settings on record: PANC-1, 48 h.
Data set [34] has as its system PANC-1. Briefly: Growth inhibition of human PANC1 cells at 300 uM after 24 hrs by alamar blue assay. The data set is classed as functional. To be noted: PANC-1, 24 h, read-out: GI.

As for `CC(=O)Oc1ccccc1C(=O)O` [ASPIRIN], the “growth inhibition (GI)” value in the data set with PC-3 [1], in the data set on SK-BR-3 [3] and with PANC-1 [13] was “Active” in each case. Moreover, the Activity result in the data set on WI-38 [2] and with WI-38 [6] was “Toxic” in each case. For the same molecule, the “growth inhibition (GI)” value in the data set with SK-BR-3 [4], with PC-3 [5], in the data set on PANC-1 [10], in the data set with SK-BR-3 [11], with PANC-1 [12] and in the data set on PC-3 [15] was “inactive” throughout. In addition, the metabolised at 3 h in data set [7] was 47%. The IC50 in the data set on PC-3 [8] was 782 µM; in the data set with PC-3 [14], 771 µM. In addition, the solubility result in data set [9] is recorded as “soluble”.

For `CC(=O)Oc1ccccc1C(=O)O[C@@H]1[C@@H](O)[C@@H](O)O[C@H](CO)[C@H]1O`, the inhibition of growth at 300 µM in the data set on PC-3 [1] (PC-3, 48 h, read-out: GI) stood at 85%; with SK-BR-3 [23], 60%; in the data set with SK-BR-3 [3] (SK-BR-3, 48 h, read-out: GI), 90%; with PC-3 [29] it was 60%; in the data set with PANC-1 [13] (PANC-1, 48 h, read-out: GI), 70%; with PANC-1 [34] it was 60%. The IC50 in the data set with SK-BR-3 [16] worked out at 201 µM; in the data set on PANC-1 [17] it was 399 µM; with WI-38 [18], 310 µM; in the data set on SK-BR-3 [27] it was 87.8 µM; with PC-3 [8], 81.4 µM; in the data set on WI-38 [30], 376 µM. Moreover, the results for the IC50 with PANC-1 [33] and in the data set with PC-3 [14] were 90.5 µM and 83.2 µM, respectively. For the same molecule, the outcome in the data set with WI-38 [19] and with PC-3 [20] was Active. The “Ratio IC50” value with PC-3 [21], with SK-BR-3 [22] and in the data set with PANC-1 [32] was 8 throughout. Moreover, the inhibition of growth at 150 µM was 60% in the data set on SK-BR-3 [24], 60% in the data set with PANC-1 [25] and 65% in the data set with PC-3 [26]. Besides, the “growth inhibition (GI)” value with SK-BR-3 [4], in the data set on PC-3 [5] and in the data set with PANC-1 [10] was 20% throughout. Moreover, in data set [7], the metabolised at 3 h is 27%. Further, the solubility entry in data set [28] is “soluble”. Besides, the Activity entry in the data set on WI-38 [31] is on record as “Non-toxic”.

The record behind these values is ChEMBL document CHEMBL2016506, “Glucose-aspirin: Synthesis and in vitro anti-cancer activity studies” (Bioorg Med Chem Lett, 2012).
